This note sets out measurements from paper PMC10246433 (Bioorganic & medicinal chemistry letters, 2023).

Entries after “also recorded” stand apart in the source; their conditions may differ.

Assay [1] concerns the target T1, hNek2 kinase (Homo sapiens, UniProt P51955).
T1 sequence (P51955 1-445): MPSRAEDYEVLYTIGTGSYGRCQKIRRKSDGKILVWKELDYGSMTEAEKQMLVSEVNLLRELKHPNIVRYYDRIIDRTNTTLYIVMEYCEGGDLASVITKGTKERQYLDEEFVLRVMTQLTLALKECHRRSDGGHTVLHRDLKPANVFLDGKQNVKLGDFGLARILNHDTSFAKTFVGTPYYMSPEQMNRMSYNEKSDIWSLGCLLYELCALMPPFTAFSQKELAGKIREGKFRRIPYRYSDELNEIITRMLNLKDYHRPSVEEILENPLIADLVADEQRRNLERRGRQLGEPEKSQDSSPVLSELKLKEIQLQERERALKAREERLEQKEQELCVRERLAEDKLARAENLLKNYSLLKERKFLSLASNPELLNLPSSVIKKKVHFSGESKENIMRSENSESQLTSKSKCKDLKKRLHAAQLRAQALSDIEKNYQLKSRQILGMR
The assay is described as follows: ADP-Glo kinase assay, recombinant hNek2. The class given is biochemical.

The test system of assay [2] is pAkt (Ser-473) in A549 cells. The assay is described as follows: Western-blot analysis of pAkt. To be noted: 24 h treatment, compared to DMSO.
In assay [3] the test system is A549 lung cancer cells. The experiment in a line: Wound-healing. The note with it: 24 hr post-treatment, versus vehicle control.
Assay [4] concerns A549 lung cancer cells. The experiment in a line: MTT cell viability assay, A549. The note with it: Homo sapiens, A549, read-out: Cell viability EC50, A549 (Figure 6A legend). (Formazan colour is commonly taken as a measure of viable cells.)

As to `CS(=O)(=O)N1CCC2(CC1)NCC(=O)N2` [Compound V0-1], in assay [1], the “Loss of Nek2 inhibitory activity / increase of IC50 compared to V8” value is given as more than 13 fold.
As to `CN1CCC2(CC1)NCC(=O)N2` [Compound V0-3], in assay [1], the “Loss of Nek2 inhibitory activity / increase of IC50 compared to V8” value is recorded as “significant loss of potency”.
Regarding `CS(=O)(=O)N1CCC2(CC1)N=C(c1ccc(Br)cc1)C(=O)N2` [Compound V8], the “Mode of Nek2 inhibition” value in assay [1] is “competitive with respect to ATP, reversible, and selective; also recorded: selective, reversible and is not time dependent; also recorded: competitive inhibitor for ATP binding”. Moreover, the “Selectivity towards Nek2 kinase over the other tested kinases” value in assay [1] (versus other tested kinases (Table 1)) is reported as 9- to 13 fold. For the same compound, the “Cellular levels of pAkt (Ser-473)” value in assay [2] is recorded as “reduced levels of pAkt (Ser-473) in a dose-dependent manner”. For the same compound, in assay [3], the “Cell migration in wound-healing assay” value is “migrated slower than the vehicle control; also recorded: Dose-dependent inhibiton of cell migration”. Also, the EC50 in assay [4] was 22.7 ± 0.2 µM.

One may read the EC50 as the midpoint of the concentration-response curve.
